Values of other authors, collected in paper PMC5589077 (ACS chemical neuroscience, 2015).
No end group written: not given here.

How the values were obtained:
[1] = tested on: rats; details: cited from earlier work
[2] = molecular target: α4β2-nAChR; details: read-out: Ki at α4β2-nAChR; cited from earlier work
[3] = molecular target: α6/α3β2β3-nAChR; details: read-out: Ki at α6/α3β2β3-nAChR; cited from earlier work
[4] = tested on: α6/α3β2β3-nAChR; details: calcium-flux, cited from earlier work
[5] = tested on: nonhuman primates with established LID; details: without reducing antiparkinsonian benefits; cited from earlier work
[6] = tested on: rats; details: cited from earlier work; remark: listed apart in the source
[7] = tested on: rats; details: rat, in vivo; cited from earlier work

Compound: Cc1ccc[n+](CCCCCCCCCC[n+]2cccc(C)c2)c1 [compound 9, N,N′-decane-diyl-bis-3-picolinium]
- effect on nicotine SA [1]: reduce nicotine SA

Compound: O=C(C1CC1)N1CC2CC(C1)N2 [compound 8, 3-cyclopropylcarbonyl-3,6-dazabicyclo[3.1.1]heptane]
- Ki [2]: 3 nM
- Ki [3]: 21 nM
- Emax at α6/α3β2β3-nAChR [4]: 100%
- EC50 ([4]; read-out: EC50 at α6/α3β2β3-nAChR): 80 nM
- effect on L-dopa induced dyskinesia (LID) [5]: ameliorated
- effect on abnormal involuntary movements (AIMs) [6]: reduced abnormal involuntary movements

Compound: α-Ctx MII (GCCSNPVCHLEHSNLC; ends and bridges not checked; cysteine pairing not given here; UniProt P56636 49-64, looked up)
- effect on established nicotine self-administration [7]: attenuated established nicotine self-administration
